Experimental findings from US20140296153A1, “Oligodendrocyte Differentiation” (priority 2011, published 2014) are described below.

Each structure is given as a SMILES string.

This assay relates to SVZ cells. As to the kind of experiment: BrdU cell proliferation study in SVZ cell cultures. Conditions: 48 hours, BrdU last 4 hours. It counts as cell-based, mouse. As to the method: SVZ cell cultures were obtained from early postnatal (P1-3) C57B1/6 donor mice as described previously.
Brains were removed following decapitation and placed in HBSS solution (Gibco, Carlsbad, Calif., USA). Fragments of SVZ were dissected out of 450 μm thick coronal brain sections, digested in 0.025% trypsin and 0.265 mM EDTA (Gibco), and dissociated by gentle mixing. The cell suspension was diluted in serum-free culture medium (SFM) composed of Dulbecco's modified eagle medium (D-MEM/F12 Gluta-MAX™-I, Gibco) supplemented with 100 U/mL penicillin, 100 μg/mL streptomycin (Gibco), 1% B27 (Gibco), 10 ng/mL epidermal growth factor (EGF; Gibco), and 5 ng/mL basic fibroblast growth factor (FGF-2, Gibco). Single cells were then plated on uncoated Petri dishes at a density of 3000 cells/cm^2. […]
Fluorescence images were recorded using an LSM 510 Meta confocal microscope or an Axioskop 2 Plus fluorescence microscope (both from Carl Zeiss). […] Percentages of TUNEL or BrdU immunoreactive cells in SVZ cell cultures were calculated from cell counts in five independent microscopic fields in each coverslip with a x40 objective (approximately 200 cells per field). […] For SCCl experiments, the percentage of oligodendrocytic-like responding cells (with a Thromb/Hist ratio above 1.3) was calculated on the basis of one microscopic field per coverslip, containing approximately 100 cells (magnification, ×40). […]

Turning to `CC(C)C[C@H](NC(=O)[C@H](Cc1ccccc1)NC(=O)[C@H](CCCCN)NC(=O)[C@H](Cc1ccccc1)NC(=O)[C@H](CC(N)=O)NC(=O)[C@@H](NC(=O)[C@@H]1CCCN1)C(C)C)C(=O)N[C@@H](CO)C(=O)N[C@@H](Cc1cnc[nH]1)C(=O)O` [Hp, PVNFKFLSH], the “percentage of BrdU-positive cells” value runs as follows: (1 μM) 4.70±0.53%; (Hp 100 nM) 4.01±0.81%.
